We go through 17 compounds from patent US11034952B2, “Aptamer methods and compositions” (The Trustees of Columbia University in the City of New York, priority 2013, dated 2021).

pKd: −log10 of the molar value.

The conditions of series [1]: read-out: Kd for glucose; cited from earlier work.
Series [2] can be described thus: oral phenylalanine load, Phe concentration in serum from capillary blood detected by aptamer. It counts as in vivo. To be noted: 100 mg per kg body weight by mouth, 1 hr, FIG. 11B. As for the experimental part: FIG. 11A-FIG. 11B is a chemical structure of PACp*Rh01 aptamer (SEQ ID NO: 53) reactive for Phe and cross-reactive for Trp and a scatter and line plot showing use thereof. FIG. 11A depicts the structure of an aptamer reactive for Phe and cross-reactive for Trp. FIG. 11B is a scatter and line plot showing aptamer detected Phe concentration (μM) as a function of time (hr) in serum samples from capillary blood of subject two and subject three having an oral load of 100 mg/kg at time zero.
This aptamer was used to detected Phe concentration (μM) as a function of time (hr) in serum samples from capillary blood of subject one and subject three that took 100 mg of phenylanine per kg body weight by mouth at time zero (see e.g., FIG. 11B). […] Every hour, blood was measured for the phenylalanine concentration. In a healthy subject, the enzymes that break down phenylalanine (e.g., phenylalanine hydroxylase (PAH) or BH4-cofactor, alone or together) are stimulated and break down phenylalanine resulting in decreased concentration (see 2-5 hr in FIG. 11B).

The test system of series [3] is phenylalanine complexed with Cu(II). In words: amino acid selectivity of Cu(II) phenylalanine aptamers (RFU vs amino acid concentration). Format: binding. The conditions noted are these: for amino acid selectivity: Cu(II). As for the experimental part: (§1) FIG. 12A-FIG. 12D is a series of aptamer structures and scatter and line plots showing use thereof.
This aptamer sensor mixture (not including Cp*Rh) was incubated with concentrations of amino acids (Phe, Tyr, Trp, Gly) and fluorescence (RFU) measured (see e.g., FIG. 12B).

Series [4] deals with amino acid complexed with Cp*Rh(III). In words: amino acid selectivity of Cp*Rh(III)-amino acid binding aptamers in sensor form. The conditions noted are these: Cp*Rh(III) derivatization agent. The source says:
A series of aptamers were formed having an unbound nucleic acid pocket (see e.g., FIG. 7B-G).
An exemplary motif having a plurality of unpaired bases forming a pocket that binds a metal complex or an amino acid target molecule is shown in FIG. 8A. […]

Series [5] in a line: amino acid selectivity of HPheA104 aptamer sensor (RFU vs amino acid concentration). It counts as binding. On the procedure: as §1
This aptamer sensor mixture (not including Cp*Rh) was incubated with concentrations of amino acids (Phe, Trp, Tyr) and fluorescence (RFU) measured (see e.g., FIG. 12D).

On to `CN(Cc1ccccc1B(O)O)Cc1c2ccccc2c(CN(C)Cc2ccccc2B(O)O)c2ccccc12` [bis-boronic receptor], for which, in series [1], the pKd is around 3.30. Turning to `N[C@@H](Cc1ccccc1)C(=O)O` [phenylalanine], the “phenylalanine concentration in blood” value in series [2] is given as “rises significantly”. In the case of “CTCTCGGGACGACAGGTCCCTTTCGTAGATCGAGGAAGTATGTCGTCCC (listed as DNA, chemistry not fully specified) [Cu(II)-Phe10_49 nt, phenylalanine-Cu(II) complex aptamer]”, the amino acid selectivity entry in series [3] is “Phe cross-reactive Trp”. “CTCTCGGGACGACCGCGGTAGTCTTAACCTAAAGCGGTGTCAGGTCGTCCC (listed as DNA, chemistry not fully specified) [HTrp03, tryptophan-Cp*Rh(III) complex aptamer]”: in series [4], the amino acid selectivity result is “Trp selective”.

“CTCTCGGGACGACCGCGTTTCCCAAGAAAGCAAGTTTTGGTTGGTCGTCCC (aptamer; listed as DNA, chemistry not fully specified) [HPheA104]”: the amino acid selectivity entry in series [5] is reported as “Phe reactive”. The “specificity among phenylalanine, tryptophan, tyrosine” value in series [5] (sensor mixture not including Cp*Rh, FIG. 12D) is reported as “Phe specificity is demonstrated”. As to “CTCTCGGGACGACGACACGGGCGTCCCTTCACAAGGAGAGTGAGTCGTCCC (listed as DNA, chemistry not fully specified) [ARG01_Cp, arginine-Cp*Rh(III) complex aptamer]”, the amino acid selectivity result in series [4] is reported as “Arg selective”. On to “CTCTCGGGACGACGAGGCTGGATGCATTCGCCGGATGTTCGATGTCGTCCC (listed as DNA, chemistry not fully specified) [Cu(II)_Phe01, phenylalanine-Cu(II) complex aptamer]”, for which the amino acid selectivity entry in series [3] is “Phe reactive”. The “specificity among phenylalanine, tyrosine, tryptophan, glycine” value in series [3] (sensor mixture not including Cp*Rh, FIG. 12B) is recorded as “Phe specificity is demonstrated”. For the compound “CTCTCGGGACGACGCGGTGTGGATCCCTCGTAGAAGGAGTAGTGTCGTCCC (aptamer; listed as DNA, chemistry not fully specified) [LysCp05, lysine-Cp*Rh(III) complex aptamer]”, the amino acid selectivity result in series [4] is “Lys selective”.

Turning to “CTCTCGGGACGACGGACGCTAATCTTACAAGGGCGTAGTGTATGTCGTCCC (listed as DNA, chemistry not fully specified) [PACp*Rh01, phenylalanine-Cp*Rh(III) complex aptamer]”, the amino acid selectivity entry in series [4] is on record as “Phe cross-reactive Trp”.

For “CTCTCGGGACGACGGCCCGATCTCAGAGTAGTCGTCCC (listed as DNA, chemistry not fully specified) [Tyr-Cp*Rh(38nt), tyrosine-Cp*Rh(III) complex aptamer]”, in series [4], the amino acid selectivity entry is “Tyr selective”. In the case of “CTCTCGGGACGACGGCGGGCGCGTATGTATATCATAAGGTGTAGTCGTCCC (aptamer; listed as DNA, chemistry not fully specified) [LeuCp17, leucine-Cp*Rh(III) complex aptamer]”, the amino acid selectivity result in series [4] is on record as “selective for Leu over Ile”. For “CTCTCGGGACGACGGCGGGGAAACAGCTGCAAAATGTGGAGTAGTCGTCCC (Cp*Rh(III)-citrulline complex, further chemistry not given here) [CIT30N02_Cp*Rh, citrulline-Cp*Rh(III) complex aptamer]”, the amino acid selectivity entry in series [4] is listed as “citrulline non-selective”. As to “CTCTCGGGACGACGGCGGGTGAATGCACACTTAGCAGAGAGTAGTCGTCCC (aptamer; listed as DNA, chemistry not fully specified) [GlutaCp02, glutamine-Cp*Rh(III) complex aptamer]”, the amino acid selectivity result in series [4] is on record as “Gln selective”. “CTCTCGGGACGACGGGCCACGTTTTCCAGGTACTTTCTAAGGGGTCGTCCC (aptamer; listed as DNA, chemistry not fully specified) [AspaCp03, asparagine-Cp*Rh(III) complex aptamer]”: the amino acid selectivity entry in series [4] is given as “Asn selective”.

In the case of “CTCTCGGGACGACGGGCTAGGCGTGGGTGTAAAGGCACAGGGGTCGTCCC (listed as DNA, chemistry not fully specified) [Gly-Cp sensor, glycine-Cp*Rh(III) complex aptamer]”, the amino acid selectivity entry in series [4] is “Gly selective”.

For the compound “CTCTCGGGACGACGGGTCAGTTAGACCGTGAGGCTTCCGAATAGTCGTCCC (aptamer; listed as DNA, chemistry not fully specified) [GLYHW-Cp*Rh06, glycine-Cp*Rh(III) complex aptamer]”, in series [4], the amino acid selectivity entry is on record as “Gly non-specific”. As to “CTCTCGGGACGACGGGTGGGAGCGATTCGAGCTACTCAGGTATGTCGTCCC (aptamer; listed as DNA, chemistry not fully specified) [LysCp*Rh18, lysine-Cp*Rh(III) complex aptamer]”, the amino acid selectivity result in series [4] is reported as “Lys non-selective”.

As a reminder, the pKd is the Kd on a negative log10 scale, so that one unit is a factor of ten.
